Data set [1] has as its system ARP1. The data set can be described thus: Colony formation on soft agar, ARP1 myeloma cells. In kind it is cell-based, human. Particulars: 1 h treatment, colonies after 10-14 days. From the text:
A two-layer agar system was used, and colonies were visualized after 10-14 days.

For data set [2], the system named is GBM subjects. The data set can be described thus: Phase I clinical trial of pharmacological ascorbate with radiation and temozolomide in GBM. The method, then: The study was broken into two phases: radiation phase and adjuvant phase. Radiation phase was defined as the time period from day 1 of radiation through adjuvant cycle 1, day 1.
Adjuvant phase was defined as the time period from cycle 1 day 1 through cycle 6 day 28. […] Prescribed doses utilized the same cohorts as the radiation phase. Subjects were dose-escalated after 2 infusions until a plasma level of 20 mM was achieved. […] Temozolomide was prescribed consistent with the Stupp regimen: 150 mg m^−2 for days 1 through 5 of a 28 day cycle. A one-time dose escalation was allowed to 200 mg/m^2 if cycle 1 was tolerated (FIG. 18A).
All subjects agreed to, and participate in, lifelong follow-up for this study. Subject numbers are for convenience and not representative of case ID numbers.
The study was broken into two phases: radiation phase and adjuvant phase. Radiation phase was defined as the time period from day 1 of radiation through adjuvant cycle 1, day 1. […] Cohorts were defined as 15 g, 25 g, 50 g, 62.5 g, 75 g, 87.5 g, 100 g, and 125 g. […] Adjuvant phase was defined as the time period from cycle 1 day 1 through cycle 6 day 28. […] Prescribed doses utilized the same cohorts as the radiation phase. Subjects were dose-escalated after 2 infusions until a plasma level of 20 mM was achieved. […] Temozolomide was prescribed consistent with the Stupp regimen: 150 mg m-2 for days 1 through 5 of a 28 day cycle. A one-time dose escalation was allowed to 200 mg/m2 if cycle 1 was tolerated (FIG. 18A). […] Dose limiting toxicities (DLTs) for the study included grade 4 infection, grade 3 nausea or vomiting despite maximum supportive care, grade 4 neutropenia or thrombocytopenia, and serious adverse events (SAE) with causality to the investigational agent. In addition to DLT, criteria for removal included progressive disease, patient's refusal to continue treatment, and extraordinary medical circumstances (e.g., the constraints of the protocol are considered detrimental to patient health). All subjects agreed to, and participate in, lifelong follow-up for this study. Subject numbers are for convenience and not representative of case ID numbers.

Data set [3] concerns NSCLC cells. The experiment in a line: Cellular labile iron pool (Calcein-AM flow cytometry), NSCLC cells. In kind it is cell-based, human. Particulars: increasing doses of ascorbate. The method, then: (§1) The labile iron pool (LIP) was visualized using the fluorescent dye Calcein-AM as previously described (Epsztejn et al., 1997) with modifications. After labeling, samples were divided into two flow cytometry sample tubes, to which 100 μM 2′,2′-bipyridyl (BIP) was added to one tube and analyzed by flow cytometry. BIP tubes were incubated for at least 15 minutes before analysis to allow for full chelation of intracellular labile iron. The LIP (A.U.)=MFIBIP−MFINoBIP was normalized against the control samples to calculate the relative labile iron pool.
(§2) The labile iron pool (LIP) was visualized using the fluorescent dye Calcein-AM as previously described with modifications (Epsztejn et al., 1997). Briefly, after sample treatment, cells were trypsinized, spun at 1,200 rpm for 5 min, and resuspended at approximately 1×10^6 cells mL-1 in 500 nM Calcein-AM in PBS. Samples were incubated for 15 min at 4% O2 in a humidity controlled environment (37° C., 5% CO2). Subsequently, samples were pelleted, washed in PBS, and resuspended in 1 mL PBS before dividing each sample into two flow cytometry sample tubes, to which 100 μM 2′,2′-bipyridyl (BIP) was added to one tube. Samples were kept at room temperature and analyzed on a LSR II Flow Cytometer (BD Biosciences; λex=488 nm, λem=515/20 nm). […]

Data set [4] has as its system NHAs. The experiment in a line: Cellular labile iron pool (Calcein-AM flow cytometry), NHAs. In kind it is cell-based, human. Particulars: increasing doses of ascorbate. The method, then: as §1, §2
Data set [5] concerns ETC complex I. The data set can be described thus: ETC complex I activity after ascorbate exposure. In kind it is cell-based, human. Particulars: 15 pmol cell^−1 ascorbate for 1 h, NSCLC cell lysates. The method, then:
Exponentially growing cells were scraped and frozen as dry pellets until assayed for total activity. Aconitase activity was measured as the rate of appearance of NADPH (at 340 nm; Beckman DU 800 spectrophotometer, Brea, Calif.) for 45 min during the reaction of 200 μg total sample protein with 200 μM NADP^+ and 10 U isocitrate dehydrogenase as previously described (Case et al., 2011). Maximal ETC complex activity was measured as previously described (Birch-Machin et al., 1994). Complex I activity was quantified as the rate of rotenone-inhibitable NADH oxidation (320 nm; c=6.22 mM^−1 cm^−1). Complex II activity as the difference in the rate of DCIP reduction in the presence and absence of succinate (at 600 nm; ε=19.1 mM^−1 cm^−1). Complex IV activity was assayed as the rate of oxidation of cytochrome c ([…]; ε=19.6 mM^−1 cm^−1). Rates of activities were normalized to total protein by Lowry.
Exponentially growing cells were scraped and frozen as dry pellets until assayed for protein content (Lowry) and maximal ETC complex activity as previously described (Birch-Machin et al., 1994). Briefly, dry cell pellets were resuspended in 20 mM potassium phosphate buffer and sonicated 3×10 s each. Rates of activities were normalized to total protein. Complex I activity was quantified as the rate of rotenone-inhibitable NADH oxidation (320 nm; ε=6.22 mM-1 cm-1). […]

[6] abbreviates: ascorbate + radiation + temozolomide.
Setting [7] is: ascorbate + radiation + temozolomide, 11 subjects.

Several values for one entry are separate records, joined by “and”; a condition that tells them apart may be missing. Equal values may be shown once.

Regarding `O=C1O[C@H]([C@@H](O)CO)C(O)=C1O` [ascorbate, L-ascorbic acid], the “ascorbate dose giving complete growth inhibition (colony formation)” value in data set [1] is not below 10 pmol/cell. Moreover, the “desired therapeutic blood level (≥20 mM target plasma concentration) reached” value in data set [2] (87.5 g infusions) is “achieved in all subjects”. For the same compound, in data set [2] (all 13 subjects, 15-125 g/infusion IV), the safety and tolerability result was “safe and well tolerated”. Further, in data set [2] (as of 7/28/15), the “patients that completed the radiation phase still living” value is on record as 10 of 11. In data set [2] (setting [6]), the OS range was 7.3-29.3 m and 7.3-31.1 m; the PFS range was 3.4-29.3 m and 3.4-31.1 m; the “estimated median overall survival (Kaplan-Meier)” value is 28.4 months; the “mean progression free survival as of 7/28/15” value was determined as 14 months. In data set [2] (setting [6]), the “median OS” value came out at 15.5 m and the “median PFS” value stood at 9.4 m. In data set [2] (setting [7]), the “average overall survival (OS)” value was 18.2 months, the “average progression free survival (PFS)” value was 11.9 months, the “current median overall survival (OS)” value is recorded as 16.5 months and the “median progression free survival (PFS)” value was 9.4 months. The “adverse events attributed to pharmacological ascorbate” value in data set [2] (in combination with radiation and temozolomide) was “no adverse events attributed to pharmacological ascorbate”. In data set [2] (of 11 subjects in longevity analysis), this compound had a subjects remaining alive of 7. The “cellular LIP after ascorbate” value in data set [3] is “significant dose-dependent ascorbate-induced increases in cellular LIP”. In addition, in data set [4], the “cellular LIP after ascorbate” value is on record as “not seen”. Further, the “ETC complex I activity” value in data set [5] was “inactivation”.
